The source of these data is PMC6572114, “Synthesis, Docking and Biological Evaluation of a Novel Class of Imidazothiazoles as IDO1 Inhibitors” (Molecules, 2019).

The target in data set [1] is T1, purified recombinant human IDO1 (rhIDO1) (Homo sapiens, UniProt P14902).
T1 construct: purchased Origene
In words: rhIDO1 enzymatic assay (conversion of L-Trp to L-KYN, p-dimethylaminobenzaldehyde readout). Type of data set: biochemical. As to conditions: for inhibition at 1 µM: rhIDO1, compound 1 µM, mean ± SE of two independent experiments; for IC50: rhIDO1, concentration-response curves, at least three experiments in triplicate. The procedure:
All the 22 synthesized compounds were then biologically evaluated (Table 1). The compounds were tested for their ability to inhibit human IDO1 in an enzyme-based assay using a purified recombinant human IDO1 (rhIDO1) enzyme (Table 1). Each compound (1 µM) was added to the reaction buffer and the rhIDO1 conversion of L-Trp to L-KYN was determined spectrophotometrically using p-dimethylaminobenzaldehyde. As reference, imidazothiazole compound 1-((3-(4-bromophenyl)-3aH-thieno [2,3-b]pyrrol-4-yl)methyl)-3-(4-cyanophenyl)urea, displaying an IC50 value of 0.08 µM, was chosen.
rhIDO1 activity was determined as follows. In brief, the standard reaction mixture (200 μL) contained 50 mM potassium phosphate buffer (KPB) (pH 6.5), 20 mM ascorbic acid (neutralized with NaOH and HCl) (Sigma Aldrich), 100 μg/mL catalase (Sigma Aldrich), 10 μM methylene blue (Alfa Aesar, Heysham, Lancashire, UK), 100 µM L-tryptophan (Sigma Aldrich), 50 nM rhIDO1 (Origene, Bologna, Italy), and dimethyl sulfoxide (DMSO) solution of the compound (4 μL). The reaction was carried out at 37 °C for 60 min and stopped by the addition of 40 μL of 30% (w/v) CCl3COOH. After heating at 50 °C for 15 min, the reaction mixture was centrifuged at 1500× g for 10 min. The supernatant (150 μL) was transferred into a well of a 96-well microplate and mixed with 150 μL of 2% (w/v) p-dimethylaminobenzaldehyde (Ehrlich’s reagent) in acetic acid. The yellow pigment derived from kynurenine was measured at 490 nm using an Ultramark Microplate Imaging System (Bio-Rad, Hercules, CA, USA). IC50 values were calculated from concentration-response curves obtained in at least three different experiments run in triplicate.

In the next data set the test system is IDO1. Set-up: method as in PMID 29398544. The note with it: cited from earlier work.
The target in data set [2] is T1, purified recombinant human IDO1 (rhIDO1). As to conditions: cited from earlier work.

Read-outs that look alike come from different tables or passages of the source.

T1 sequence (P14902 whole entry): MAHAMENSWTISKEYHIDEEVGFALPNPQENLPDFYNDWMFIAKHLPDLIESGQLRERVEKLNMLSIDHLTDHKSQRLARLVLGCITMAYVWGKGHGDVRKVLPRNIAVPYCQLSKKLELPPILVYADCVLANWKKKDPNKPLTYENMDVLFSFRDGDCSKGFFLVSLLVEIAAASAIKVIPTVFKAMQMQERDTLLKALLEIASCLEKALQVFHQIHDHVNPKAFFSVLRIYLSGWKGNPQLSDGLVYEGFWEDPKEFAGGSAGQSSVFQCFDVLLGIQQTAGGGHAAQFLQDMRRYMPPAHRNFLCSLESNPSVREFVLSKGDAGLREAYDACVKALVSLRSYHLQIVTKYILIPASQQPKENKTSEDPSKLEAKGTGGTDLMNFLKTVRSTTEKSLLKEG

Turning to `N#Cc1ccc(-c2cn(Cc3cnc4scc(-c5ccc(Br)cc5)n34)nn2)cc1` [11e, 4-(1-((3-(4-Bromophenyl)imidazo[2,1-b]thiazol-5-yl)methyl)-1H-1,2,3-triazol-4-yl)benzonitrile], the melting point was 190 to 191 °C (dec.). The inhibition at 1 µM in data set [1] is 28 ± 1.5%. `N#CCCCCc1cn(CC(=O)NCc2cnc3scc(-c4ccc(Br)cc4)n23)nn1` [12k, N-((3-(4-Bromophenyl)imidazo[2,1-b]thiazol-5-yl)methyl)-2-(4-(4-cyanobutyl)-1H-1,2,3-triazol-1-yl)acetamide] had a melting point of 179.5 to 180.5 °C. The inhibition at 1 µM in data set [1] worked out at 50 ± 11%. As for `O=C(O)CCc1cn(Cc2cnc3scc(-c4ccc(Br)cc4)n23)nn1` [11j, 3-(1-((3-(4-Bromophenyl)imidazo[2,1-b]thiazol-5-yl)methyl)-1H-1,2,3-triazol-4-yl)propanoic acid], the melting point is 148 to 148.5 °C (dec.). In data set [1], the inhibition at 1 µM stood at 81 ± 7.9% and the IC50 came out at 1100 ± 70 nM. As to `O=C(COC(=O)Cc1ccc(O)cc1)NCc1cnc2scc(-c3ccc(Br)cc3)n12` [compound 2], the “ability to permeate the cell and inhibit IDO1 in a cell-based assay” value in the data set with IDO1 was “not able to significantly permeate the cell and to inhibit IDO1 in a cell-based assay”. As to `O=C(Cn1cc(C2(O)CCCCC2)nn1)NCc1cnc2scc(-c3ccc(Br)cc3)n12` [12h, N-((3-(4-Bromophenyl)imidazo[2,1-b]thiazol-5-yl)methyl)-2-(4-(1-hydroxycyclohexyl)-1H-1,2,3-triazol-1-yl)acetamide], the melting point lay in the range of 165 to 166 °C. In data set [1], the inhibition at 1 µM was 63 ± 4.1%.

As to `N#CCc1ccc(-c2cn(Cc3cnc4scc(-c5ccc(Br)cc5)n34)nn2)cc1` [11f, 2-(4-(1-((3-(4-Bromophenyl)imidazo[2,1-b]thiazol-5-yl)methyl)-1H-1,2,3-triazol-4-yl)phenyl)acetonitrile], the melting point was in the range of 121.5 to 122.5 °C. In data set [1], the inhibition at 1 µM worked out at 74 ± 5.8% and the IC50 stood at 500 ± 40 nM. On to `N#CCCCCc1cn(Cc2cnc3scc(-c4ccc(Br)cc4)n23)nn1` [11k, 5-(1-((3-(4-Bromophenyl)imidazo[2,1-b]thiazol-5-yl)methyl)-1H-1,2,3-triazol-4-yl)pentanenitrile], for which the inhibition at 1 µM in data set [1] was 62 ± 5.6%. Turning to `OCCCc1cn(Cc2cnc3scc(-c4ccc(Br)cc4)n23)nn1` [11i, 3-(1-((3-(4-Bromophenyl)imidazo[2,1-b]thiazol-5-yl)methyl)-1H-1,2,3-triazol-4-yl)propan-1-ol], the inhibition at 1 µM in data set [1] was determined as 0%. On to `O=C(Cn1cc(CCCO)nn1)NCc1cnc2scc(-c3ccc(Br)cc3)n12` [12i, N-((3-(4-Bromophenyl)imidazo[2,1-b]thiazol-5-yl)methyl)-2-(4-(3-hydroxypropyl)-1H-1,2,3-triazol-1-yl)acetamide], for which the melting point is 169 to 170 °C (dec.). For the same molecule, in data set [1], the inhibition at 1 µM was 45 ± 2.8%. On to `COc1ccc(-c2cn(Cc3cnc4scc(-c5ccc(Br)cc5)n34)nn2)cc1` [11c, 3-(4-Bromophenyl)-5-((4-(4-methoxyphenyl)-1H-1,2,3-triazol-1-yl)methyl)imidazo[2,1-b]thiazole], for which the melting point is 118 to 119 °C (dec.). The inhibition at 1 µM in data set [1] is 57 ± 13%. Consider `Brc1ccc(-c2csc3ncc(Cn4cc(Cc5ccccc5)nn4)n23)cc1` [11a, 5-((4-Benzyl-1H-1,2,3-triazol-1-yl)methyl)-3-(4-bromophenyl)imidazo[2,1-b]thiazole], for which the melting point was 106.5 to 107.5 °C. Besides, the inhibition at 1 µM in data set [1] was found to be 30 ± 6.7%. In the case of `COc1ccc(-c2cn(CC(=O)NCc3cnc4scc(-c5ccc(Br)cc5)n34)nn2)cc1` [12c, N-((3-(4-Bromophenyl)imidazo[2,1-b]thiazol-5-yl)methyl)-2-(4-(4-methoxyphenyl)-1H-1,2,3-triazol-1-yl)acetamide], the melting point lay within 183 to 184 °C. For the same molecule, in data set [1], the inhibition at 1 µM is 5 ± 1.2%.

Regarding `Brc1ccc(-c2csc3ncc(Cn4cc(C5CC5)nn4)n23)cc1` [11g, 3-(4-Bromophenyl)-5-((4-cyclopropyl-1H-1,2,3-triazol-1-yl)methyl)imidazo[2,1-b]thiazole], the melting point fell in the range of 145.5 to 146.5 °C. Besides, the inhibition at 1 µM in data set [1] was 61 ± 7.1%. Regarding `CN(CC(=O)NCc1cnc2scc(-c3ccc(Br)cc3)n12)C(=O)Cc1ccc([N+](=O)[O-])cc1` [compound 3], the “ability to permeate the cell and inhibit IDO1 in a cell-based assay” value with IDO1 is “not able to significantly permeate the cell and to inhibit IDO1 in a cell-based assay”. The IC50 in data set [2] (first series, published in 2018, read-out: IC50) was 800 nM. Take `O=C(Cn1cc(-c2ccccc2)nn1)NCc1cnc2scc(-c3ccc(Br)cc3)n12` [12b, N-((3-(4-Bromophenyl)imidazo[2,1-b]thiazol-5-yl)methyl)-2-(4-phenyl-1H-1,2,3-triazol-1-yl)acetamide]: the melting point was 251.5 to 252.5 °C (dec.). Also, the inhibition at 1 µM in data set [1] worked out at 61 ± 5.5%. As for `Nc1ccc(-c2cn(CC(=O)NCc3cnc4scc(-c5ccc(Br)cc5)n34)nn2)cc1` [12d, 2-(4-(4-Aminophenyl)-1H-1,2,3-triazol-1-yl)-N-((3-(4-bromophenyl)imidazo[2,1-b]thiazol-5-yl)methyl)acetamide], the melting point is 217 to 218 °C (dec.). The inhibition at 1 µM in data set [1] came out at 56 ± 4.7%. `N#CCc1ccc(-c2cn(CC(=O)NCc3cnc4scc(-c5ccc(Br)cc5)n34)nn2)cc1` [12f, N-((3-(4-Bromophenyl)imidazo[2,1-b]thiazol-5-yl)methyl)-2-(4-(4-(cyanomethyl)phenyl)-1H-1,2,3-triazol-1-yl)acetamide] had a melting point of 231 to 231.5 °C. Besides, the inhibition at 1 µM in data set [1] turned out to be 55 ± 7.2%. As to `O=C(Cn1cc(Cc2ccccc2)nn1)NCc1cnc2scc(-c3ccc(Br)cc3)n12` [12a, 2-(4-Benzyl-1H-1,2,3-triazol-1-yl)-N-((3-(4-bromophenyl)imidazo[2,1-b]thiazol-5-yl)methyl)acetamide], the melting point lay in the range of 177 to 177.5 °C. Moreover, in data set [1], the inhibition at 1 µM was 63 ± 4.3%.

Turning to `O=C(O)CCc1cn(CC(=O)NCc2cnc3scc(-c4ccc(Br)cc4)n23)nn1` [12j, 3-(1-(2-(((3-(4-Bromophenyl)imidazo[2,1-b]thiazol-5-yl)methyl)amino)-2-oxoethyl)-1H-1,2,3-triazol-4-yl)propanoic acid], the melting point was 153 to 154 °C (dec.). The inhibition at 1 µM in data set [1] came to 33 ± 4.5%.

For `N#Cc1ccc(-c2cn(CC(=O)NCc3cnc4scc(-c5ccc(Br)cc5)n34)nn2)cc1` [12e, N-((3-(4-Bromophenyl)imidazo[2,1-b]thiazol-5-yl)methyl)-2-(4-(4-cyanophenyl)-1H-1,2,3-triazol-1-yl)acetamide], the melting point is 267 to 267.5 °C (dec.). For the same molecule, in data set [1], the inhibition at 1 µM turned out to be 50 ± 4.5%. For `O=C(Cn1cc(C2CC2)nn1)NCc1cnc2scc(-c3ccc(Br)cc3)n12` [12g, N-((3-(4-Bromophenyl)imidazo[2,1-b]thiazol-5-yl)methyl)-2-(4-cyclopropyl-1H-1,2,3-triazol-1-yl)acetamide], the melting point is 225 to 225.5 °C (dec.). In data set [1], the inhibition at 1 µM is 70 ± 9.2% and the IC50 was 200 ± 10 nM. Turning to `N#Cc1ccc(NC(=O)NCC2=CN=C3SC=C(c4ccc(Br)cc4)C23)cc1` (stereo not shown) [1-((3-(4-bromophenyl)-3aH-thieno [2,3-b]pyrrol-4-yl)methyl)-3-(4-cyanophenyl)urea], the concentration for half-maximal inhibition (IC50) in data set [2] (rhIDO1, read-out: IC50 (rhIDO1)) was 80 nM. Regarding `Brc1ccc(-c2csc3ncc(Cn4cc(-c5ccccc5)nn4)n23)cc1` [11b, 3-(4-Bromophenyl)-5-((4-phenyl-1H-1,2,3-triazol-1-yl)methyl)imidazo[2,1-b]thiazole], the melting point was 199 to 199.5 °C (dec.). Moreover, the inhibition at 1 µM in data set [1] came out at 35 ± 2.7%. Take `OC1(c2cn(Cc3cnc4scc(-c5ccc(Br)cc5)n34)nn2)CCCCC1` [11h, 1-(1-((3-(4-Bromophenyl)imidazo[2,1-b]thiazol-5-yl)methyl)-1H-1,2,3-triazol-4-yl)cyclohexanol]: the melting point was 163.5 to 164.5 °C (dec.). For the same molecule, in data set [1], the inhibition at 1 µM was 35 ± 2.4%. Consider `Nc1ccc(-c2cn(Cc3cnc4scc(-c5ccc(Br)cc5)n34)nn2)cc1` [11d, 4-(1-((3-(4-Bromophenyl)imidazo[2,1-b]thiazol-5-yl)methyl)-1H-1,2,3-triazol-4-yl)aniline], for which the melting point was 117 to 118 °C (dec.). The inhibition at 1 µM in data set [1] turned out to be 17 ± 1.2%.

Usually melting point stands for the temperature of the solid-liquid transition. What is called inhibition is the drop in the measured response relative to a control, in per cent. Broadly, the IC50 is the concentration that inhibits the measured activity by half.
